Data as given in ChEMBL document CHEMBL1201862, “PubChem BioAssay data set” (2004).
Active and inactive are the calls of the source.

How the values were obtained:
[1] = target: T1, Short transient receptor potential channel 4 (Mus musculus, UniProt Q9QUQ5); test: block of DAMGO-driven TRPC4 calcium entry – cell-based, HEK293 TRPC4/mu-opioid, Fluo-4 calcium, dose response (AID 434942); type: functional;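 further: potency of inhibitors blocking the TRPC4 calcium response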
T1 sequence (Q9QUQ5 whole entry): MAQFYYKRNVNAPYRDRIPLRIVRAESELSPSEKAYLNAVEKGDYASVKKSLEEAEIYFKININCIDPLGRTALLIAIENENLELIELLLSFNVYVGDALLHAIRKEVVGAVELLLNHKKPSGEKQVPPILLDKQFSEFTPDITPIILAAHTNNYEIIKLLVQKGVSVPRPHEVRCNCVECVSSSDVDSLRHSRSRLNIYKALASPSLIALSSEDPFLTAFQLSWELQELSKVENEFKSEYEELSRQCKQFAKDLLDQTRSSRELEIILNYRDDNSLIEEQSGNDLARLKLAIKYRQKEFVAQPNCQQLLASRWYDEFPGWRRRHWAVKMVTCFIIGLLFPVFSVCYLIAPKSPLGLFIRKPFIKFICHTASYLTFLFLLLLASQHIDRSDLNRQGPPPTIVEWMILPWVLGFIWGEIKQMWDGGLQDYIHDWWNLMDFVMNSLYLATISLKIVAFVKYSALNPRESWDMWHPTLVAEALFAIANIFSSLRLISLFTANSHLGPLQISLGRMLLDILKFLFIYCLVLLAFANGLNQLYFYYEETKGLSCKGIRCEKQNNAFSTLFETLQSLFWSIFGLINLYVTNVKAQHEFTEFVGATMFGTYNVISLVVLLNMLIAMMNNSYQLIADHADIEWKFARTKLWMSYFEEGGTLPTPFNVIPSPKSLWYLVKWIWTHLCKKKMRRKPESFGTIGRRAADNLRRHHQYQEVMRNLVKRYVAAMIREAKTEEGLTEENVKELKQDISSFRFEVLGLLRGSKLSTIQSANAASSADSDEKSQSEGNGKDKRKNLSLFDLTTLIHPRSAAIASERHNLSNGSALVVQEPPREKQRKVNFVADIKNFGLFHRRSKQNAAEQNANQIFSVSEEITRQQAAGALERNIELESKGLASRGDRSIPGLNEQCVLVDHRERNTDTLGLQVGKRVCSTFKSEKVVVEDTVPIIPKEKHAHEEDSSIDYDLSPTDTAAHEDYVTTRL

[2] = target: FAD-linked sulfhydryl oxidase ALR (Homo sapiens, UniProt P55789); test: ALR-catalysed DTT oxidation blockers – biochemical, H2O2 detection, luminescence, cherry-pick, dose response (AID 493248)
[3] = target: T2, Heat shock factor protein 1 (Mus musculus, UniProt P38532); test: enhancement of HSF1-driven luciferase signal – cell-based, NIH3T3, luminescence, dose retest, confirmation (AID 435004); type: functional;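 further: stress induced by proteasome inhibitor MG132 added 30 min after compound; luciferase reporter driven by HSF1 response element in NIH3T3 cells; actives raise luminescence as potentiators of the MG132 stress response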
T2 sequence (P38532 whole entry): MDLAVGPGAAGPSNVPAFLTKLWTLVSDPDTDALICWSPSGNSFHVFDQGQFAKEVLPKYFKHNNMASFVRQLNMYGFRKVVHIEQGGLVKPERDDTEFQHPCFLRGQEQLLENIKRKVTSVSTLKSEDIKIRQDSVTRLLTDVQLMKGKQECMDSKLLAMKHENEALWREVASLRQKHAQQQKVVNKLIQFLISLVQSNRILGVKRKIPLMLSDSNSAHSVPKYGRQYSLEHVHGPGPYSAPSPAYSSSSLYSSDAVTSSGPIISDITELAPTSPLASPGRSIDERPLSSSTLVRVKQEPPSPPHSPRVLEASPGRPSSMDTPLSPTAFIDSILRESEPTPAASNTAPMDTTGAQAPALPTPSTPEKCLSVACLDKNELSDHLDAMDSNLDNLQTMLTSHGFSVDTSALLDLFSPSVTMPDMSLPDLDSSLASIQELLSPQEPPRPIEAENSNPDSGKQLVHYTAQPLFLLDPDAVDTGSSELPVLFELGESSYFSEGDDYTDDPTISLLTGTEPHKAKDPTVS

H9c2 = test: cells; type: functional, cell-based; conditions: Rattus norvegicus, H9c2, Myocardium
[4] = target: T3, Rac GTPase-activating protein 1 (Homo sapiens, UniProt Q9H0H5); test: blockers of MgcRacGAP-driven Rac1 GTP hydrolysis – biochemical, ADP Hunter fluorescence, primary and confirmatory, confirmation (AID 624330); type: functional
T3 sequence (Q9H0H5 whole entry): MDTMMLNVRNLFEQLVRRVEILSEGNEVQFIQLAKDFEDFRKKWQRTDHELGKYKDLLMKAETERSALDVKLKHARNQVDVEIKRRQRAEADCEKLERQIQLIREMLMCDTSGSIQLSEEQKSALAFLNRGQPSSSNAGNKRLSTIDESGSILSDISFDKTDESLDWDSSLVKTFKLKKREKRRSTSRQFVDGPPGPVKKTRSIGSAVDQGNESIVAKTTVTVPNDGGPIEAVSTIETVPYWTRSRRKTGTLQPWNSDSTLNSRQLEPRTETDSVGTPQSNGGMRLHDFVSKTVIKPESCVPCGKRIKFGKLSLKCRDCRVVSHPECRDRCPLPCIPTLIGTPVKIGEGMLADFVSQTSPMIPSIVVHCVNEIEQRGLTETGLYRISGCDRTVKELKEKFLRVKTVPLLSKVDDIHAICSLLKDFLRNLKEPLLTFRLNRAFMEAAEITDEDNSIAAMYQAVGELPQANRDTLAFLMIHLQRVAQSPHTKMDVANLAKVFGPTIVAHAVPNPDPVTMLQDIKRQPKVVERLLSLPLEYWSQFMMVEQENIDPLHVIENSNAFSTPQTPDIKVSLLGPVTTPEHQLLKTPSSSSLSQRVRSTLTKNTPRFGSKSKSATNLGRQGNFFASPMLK

[5] = target: T4, Ubiquitin-conjugating enzyme E2 N (Homo sapiens, UniProt P61088); type: functional;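 further: Dose-response confirmation in a TR-FRET assay detecting UBC13-driven polyubiquitin chain formation, inhibition measured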
T4 sequence (P61088 whole entry): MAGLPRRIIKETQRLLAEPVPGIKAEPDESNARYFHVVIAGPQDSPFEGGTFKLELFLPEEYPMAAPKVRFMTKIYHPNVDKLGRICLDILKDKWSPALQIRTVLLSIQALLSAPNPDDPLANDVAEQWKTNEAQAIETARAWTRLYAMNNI

INS1 = test: INS-1E survival protection against cytokine death – cell-based, luminescence, retest, dose response (AID 449756); type: functional; conditions: Rattus norvegicus;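 further: cell death triggered by IL-1 beta plus TNF-alpha plus IFN-gamma mixture; protective hits raise ATP signal compared with cytokine alone wells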
[6] = reduction of Shn3 3'UTR-driven luciferase in osteoblasts – cell-based, Clone20 osteoblasts, firefly luciferase, cherry-picked, dose response (AID 624132); type: functional;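 further: firefly luciferase luminescence from reporter carrying the Shn3 3'UTR in osteoblasts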
[7] = non-specific 3'UTR reporter inhibition in Clone20-Shn3RL – cell-based, Renilla luciferase, cherry-picked, counter-screen for Shn3 inhibitor project, dose response (AID 624133); type: functional
[8] = test system: Streptococcus sp. 'group A'; test: Streptococcus pyogenes SK(-)GAS viability under kanamycin – luminescence, BacTiterGlo, confirmation, counter-screen for streptokinase expression inhibitor project, dose response (AID 1900); type: functional, organism-based
Streptokinase A = target: T5, Streptokinase A (Streptococcus pyogenes serotype M1, UniProt P10520); test: viability-normalized secreted streptokinase activity reduction – plasminogen activation absorbance, OD405, dose response (AID 1914); type: functional, Streptococcus pyogenes M1 GAS;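 further: secreted streptokinase activity via plasminogen activation per viability signal from cell pellet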
T5 sequence (P10520 whole entry): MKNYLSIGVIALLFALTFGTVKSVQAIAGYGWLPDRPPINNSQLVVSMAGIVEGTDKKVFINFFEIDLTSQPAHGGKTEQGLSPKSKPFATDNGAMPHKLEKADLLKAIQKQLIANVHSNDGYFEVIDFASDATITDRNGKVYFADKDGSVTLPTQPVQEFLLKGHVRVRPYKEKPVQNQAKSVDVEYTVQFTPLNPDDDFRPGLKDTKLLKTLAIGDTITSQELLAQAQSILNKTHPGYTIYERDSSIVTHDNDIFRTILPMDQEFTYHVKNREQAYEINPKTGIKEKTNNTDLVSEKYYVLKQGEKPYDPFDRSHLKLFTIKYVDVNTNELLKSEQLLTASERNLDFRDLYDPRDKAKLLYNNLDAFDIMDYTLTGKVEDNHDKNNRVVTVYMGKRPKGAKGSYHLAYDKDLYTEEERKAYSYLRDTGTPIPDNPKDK

Streptococcus = test: GAS UMAA2166 growth inhibition – luminescence, BacTiterGlo, counter-screen for streptokinase expression inhibitor project, dose response (AID 1915); type: functional, organism-based;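 further: potency for reduction of bacterial viability or growth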
BJ [9] = test: BJ-TERT fibroblast viability loss – cell-based, RAS-independent, luminescence, dose response (AID 1933); type: functional; conditions: Homo sapiens
BJ [10] = test: cells; type: functional, cell-based; conditions: Homo sapiens
BJ [11] = test: BJ-TERT-LT-ST fibroblast viability loss – cell-based, RAS-independent, luminescence, dose response (AID 1935); type: functional; conditions: Homo sapiens;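 further: BJ fibroblasts immortalized with TERT plus LT and ST oncogenes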
[12] = DRD fibroblast viability loss – cell-based, non-viral oncogenic, luminescence, dose response (AID 1934); type: functional; conditions: Homo sapiens
Cytochrome P450 2D6 = Cytochrome P450 2D6 (Homo sapiens, UniProt P10635);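 further: CYP2D6 member of a cytochrome P450 panel assay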
Cytochrome P450 2C9 = Cytochrome P450 2C9 (Homo sapiens, UniProt P11712)
Cytochrome P450 2C19 = Cytochrome P450 2C19 (Homo sapiens, UniProt P33261); test: Cytochrome panel assay with activity outcomes. Panel member name: p450-cyp2c19 Compounds with AC50 equal or less than 10 uM are considered active; type: functional; conditions: read-out: AC50
Sequence of Cytochrome P450 2C19 (P33261 whole entry): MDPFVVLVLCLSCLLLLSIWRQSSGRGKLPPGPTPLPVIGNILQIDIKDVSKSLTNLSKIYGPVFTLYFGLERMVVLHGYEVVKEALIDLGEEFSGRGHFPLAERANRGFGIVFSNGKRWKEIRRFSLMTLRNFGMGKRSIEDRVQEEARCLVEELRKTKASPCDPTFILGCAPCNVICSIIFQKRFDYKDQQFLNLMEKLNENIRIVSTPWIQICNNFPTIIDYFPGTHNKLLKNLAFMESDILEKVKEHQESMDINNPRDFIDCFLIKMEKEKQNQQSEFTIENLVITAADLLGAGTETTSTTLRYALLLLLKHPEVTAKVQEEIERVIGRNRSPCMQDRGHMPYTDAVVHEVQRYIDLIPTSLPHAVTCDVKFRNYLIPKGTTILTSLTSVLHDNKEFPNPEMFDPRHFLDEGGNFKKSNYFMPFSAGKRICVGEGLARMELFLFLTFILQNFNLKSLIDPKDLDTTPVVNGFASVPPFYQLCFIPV

Sequence of Cytochrome P450 2C9 (P11712 whole entry): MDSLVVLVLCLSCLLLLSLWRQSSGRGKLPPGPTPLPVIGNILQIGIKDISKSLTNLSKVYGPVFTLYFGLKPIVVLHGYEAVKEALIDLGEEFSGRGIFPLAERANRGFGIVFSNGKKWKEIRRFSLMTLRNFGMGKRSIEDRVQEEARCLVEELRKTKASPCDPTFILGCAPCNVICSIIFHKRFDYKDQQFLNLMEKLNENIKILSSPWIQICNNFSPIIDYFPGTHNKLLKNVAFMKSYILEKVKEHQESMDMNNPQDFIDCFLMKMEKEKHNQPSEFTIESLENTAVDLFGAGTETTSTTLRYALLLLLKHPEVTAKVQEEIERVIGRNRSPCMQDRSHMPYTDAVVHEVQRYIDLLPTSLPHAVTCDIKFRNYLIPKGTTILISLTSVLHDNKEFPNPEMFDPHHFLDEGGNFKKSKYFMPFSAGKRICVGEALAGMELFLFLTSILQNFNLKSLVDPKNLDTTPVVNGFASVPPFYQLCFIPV
Sequence of Cytochrome P450 2D6 (P10635 whole entry): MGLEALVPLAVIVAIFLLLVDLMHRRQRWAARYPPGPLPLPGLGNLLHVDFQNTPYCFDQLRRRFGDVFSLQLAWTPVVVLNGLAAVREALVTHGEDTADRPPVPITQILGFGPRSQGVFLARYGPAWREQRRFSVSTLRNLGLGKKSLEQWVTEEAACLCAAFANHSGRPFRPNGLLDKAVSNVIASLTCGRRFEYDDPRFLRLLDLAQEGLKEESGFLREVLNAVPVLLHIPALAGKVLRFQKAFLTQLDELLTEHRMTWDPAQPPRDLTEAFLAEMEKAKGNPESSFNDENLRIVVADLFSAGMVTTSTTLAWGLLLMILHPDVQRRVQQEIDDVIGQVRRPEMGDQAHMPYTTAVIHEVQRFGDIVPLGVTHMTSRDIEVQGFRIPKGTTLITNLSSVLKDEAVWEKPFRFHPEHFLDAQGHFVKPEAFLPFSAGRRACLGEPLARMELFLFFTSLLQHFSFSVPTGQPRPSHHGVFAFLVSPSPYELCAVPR
Sequence of FAD-linked sulfhydryl oxidase ALR (P55789 whole entry): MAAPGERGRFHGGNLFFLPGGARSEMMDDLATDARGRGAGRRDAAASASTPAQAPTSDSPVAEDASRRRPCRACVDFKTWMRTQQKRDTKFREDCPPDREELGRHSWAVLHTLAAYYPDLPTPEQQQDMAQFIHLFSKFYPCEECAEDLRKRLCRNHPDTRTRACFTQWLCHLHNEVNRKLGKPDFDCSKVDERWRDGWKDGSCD

## Cc1cccc(C(=O)Nc2sc(-c3ccccc3)cc2C(=O)O)c1
[1]
  EC50: 2.11 µM (active)

## Nc1cc(C(F)(F)F)ccc1Nc1ccccc1
[1]
  EC50: 4.22 µM (active)
[2]
  AC50: 14.6 µM (active)

## COC(=O)c1cc(S(=O)(=O)C(C)C)c([S+](C)[O-])s1 (stereo not drawn)
[3]
  EC50: 93.8 µM (active)

## COCCCN(Cc1ccco1)C(=O)Cn1ncc2c3ccccc3nc-2c1O
H9c2
  IC50: > 79 µM (inactive)

## COc1ccc(CN2CCN(Cc3ccccc3F)CC2)c(OC)c1
[1]
  EC50: 4.22 µM (active)
[4]
  IC50: 70.3 µM (active)

## Clc1ccccc1CSc1nc2cc[nH]cc-2n1
[1]
  EC50: 2.99 µM (active)

## CCC(C)[C@H](Nc1nc(-c2ccccc2)nc2c1oc1ccccc12)C(=O)O (stereo partly drawn)
[1]
  EC50: 7.5 µM (active)

## CN=C(S)N1CCN(C(c2ccccc2)c2ccccc2)CC1
[1]
  EC50: 8.41 µM (active)

## CN(CC(=O)Nc1ccc(F)cc1)C(=O)CCc1nc(O)c2ccccc2n1
H9c2
  IC50: > 79 µM (inactive)

## Cc1cc(C)cc(OCC(=O)Nc2cccc(-c3nc4ncccc4o3)c2)c1
H9c2
  IC50: > 79 µM (inactive)

## Cc1ccc(C)c(N2CCN(CCCNC(=O)CCC(=O)N3CCOc4ccc(Cl)cc43)CC2)c1
[5]
  IC50: > 20 µM (inactive)

## C=CC[C@@H]1Cc2c(Br)ccc(Br)c2[C@@H](CC=C)N1
[3]
  EC50: > 260 µM (inactive)

## CCn1c(NCc2c[nH]c3ccccc23)nc2ccccc21
[1]
  EC50: 3.35 µM (active)

## Cc1ccc(CNC(=O)[C@H](C)N2C(=O)N3CCc4c([nH]c5ccccc45)[C@@]3(C)C2=O)cc1
[3]
  EC50: > 260 µM (inactive)

## CCS(=O)(=O)c1ncc(Cl)c(C(=O)Nc2ccccc2OC)n1
[3]
  EC50: 8.04 µM (active)
INS1
  AC50: 38.9 µM (active)
[6]
  AC50: 3.71 µM (active)
[7]
  AC50: 4.81 µM (active)

## CCCCCCCCCCCC(=O)c1c(O)cccc1O
[8]
  EC50: 1.53 µM (active)
Streptokinase A
  EC50: > 150 µM (not active)
Streptococcus
  EC50: 7.15 µM (active)
[3]
  EC50: 60.1 µM (active)

## CC(C)Cn1c(N)c(C(=O)COC(=O)CCc2nc(O)c3ccccc3n2)c(=O)n(C)c1=O
H9c2
  IC50: > 79 µM (inactive)

## Cc1cn(Cc2ccccc2Cn2cc(C)c(=O)[nH]c2=O)c(=O)[nH]c1=O
[3]
  EC50: > 260 µM (inactive)

## O=c1c2ccccc2sc2nc(C3CCCCC3)n(Cc3ccco3)c(=O)c12
[3]
  EC50: 47.8 µM (active)

## COc1cc(C(=O)Nc2ccc(C)cc2)c2ccccc2n1
BJ [9]
  EC50: 1.15 µM (inconclusive)
BJ [10]
  EC50: 22.9 µM (active)
BJ [11]
  EC50: 12.8 µM (inconclusive)
[12]
  EC50: 707 nM (inconclusive)

## C#CCOCCOCCOCCNc1nc(N2CCN(C(=O)[C@H](CCCCN)n3cc([C@@H](N)CO)nn3)CC2)nc(N2CCN(C(=O)[C@H](CCCCN)n3cc([C@@H](N)CC(C)C)nn3)CC2)n1
[5]
  IC50: > 20 µM (inactive)

## COc1ccc(-c2cc(C(=O)N(C)Cc3ccc(OC)c(OC)c3OC)c3ccccc3n2)cc1OC
H9c2
  IC50: > 79 µM (inactive)

## Oc1nc2cccc(Cl)c2c2ccccc12
H9c2
  IC50: 39.6 µM (inactive)

## COc1ccc(/C=C/C(=O)Oc2cc(O)cc(O)c2)cc1
[1]
  EC50: 3.76 µM (active)

## CC(=O)/N=c1\sccn1CC(=O)c1ccc([N+](=O)[O-])cc1
[3]
  EC50: > 260 µM (inactive)
Cytochrome P450 2D6
  AC50: 14.1 µM (inconclusive)
Cytochrome P450 2C9
  AC50: 79.4 nM (inconclusive)

## CCOc1cc(/C=N/NC(N)=O)cc(Br)c1OCC(=O)Nc1cccc2ccccc12
H9c2
  IC50: > 79 µM (inactive)

## COc1ccc(N(CC(=O)N/N=C/c2cccs2)S(=O)(=O)c2ccc(OC)c(OC)c2)cc1
Cytochrome P450 2C19
  AC50: 17.8 nM (inconclusive)
H9c2
  IC50: > 79 µM (inactive)
Cytochrome P450 2D6
  AC50: 31.6 µM (inconclusive)
Cytochrome P450 2C9
  AC50: 4470 nM (inconclusive)
